Test [1] deals with cellular pERK in ASPC-1 (KRAS G12D) cells. Kind of test: Cell based pERK assay, ASPC-1. To be noted: Homo sapiens, ASPC1; ASPC-1 (KRAS G12D), 2 hours incubation, HTRF phospho-ERK1/2; read-out: AsPC1 pERK EC50. The method, then:
(§1) Compounds were tested in a 384-well assay format for their ability to inhibit cellular pERK in Kuramochi (WT KRAS), MIA-PaCa-2 (KRAS-G12C), ASPC-1 (KRAS G12D), and NCI-H441 (KRAS-G12V) cell-lines. Compounds were serially diluted (1:3) in DMSO. On day −1, 80 μL of cells were plated per well in the 384 well tissue-culture plates (Greiner: Cat #781080) to seed 5000 cells per wells of AsPC-1 or 7500 cells of MIA-PaCa-2, NCI-H441, and Kuramochi cell lines in RPMI (Corning: Cat #10-040-CM) with 10% fetal bovine serum (FBS) (HyClone: Cat #SH30071-03) and 1× penicillin-streptomycin-glutamate (PSG) (Corning: Cat #30-009-CI) for […] and Kuramochi cell lines and DMEM (Corning: Cat #15-018-CM) with 10% FBS and 1×PSG for MIA-PaCa-2 cell line. The plates were then incubated overnight at 37° C. and 5% CO2. On day 0, 400 nL of compound/well was added into the cell plates and mixed 5 times by pipetting using a Beckmann Biomek FX. The cell plates were then incubated for 2 hours at 37° C. and 5% CO2. HTRF Advanced Phospho-ERK1/2 (THR202/TYR204) Detection Kits (PerkinElmer: Cat #64AERPEG) were used to prepare the lysis and detection solution according to manufacturer protocol. Following the 2 hour incubation, 70 μL of medium was aspirated from the plates and 10 uL of lysis and detection solution was added to the plates using a Biotek EL406 washer and dispenser. Plates were sealed and stored overnight at room temperature. HTRF ratio (665 nm/615 nm) was read by Envision multimode reader (PerkinElmer) the next day. The TR-FRET ratios were normalized to a positive (saturating concentration of known inhibitor) and negative (DMSO) control and plotted against the log of compound concentration.
For orientation: Time-resolved FRET reads energy transfer from a long-lived donor to a nearby acceptor.

The test system of test [2] is cellular pERK in NCI-H441 (KRAS-G12V) cells. In words: Cell based pERK assay, NCI-H441. To be noted: Homo sapiens; NCI-H441 (KRAS-G12V), 2 hours incubation, HTRF phospho-ERK1/2; read-out: H441 PERK EC50. As for the experimental part:
as §1

The test system of test [3] is cellular pERK in Kuramochi (WT KRAS) cells. In words: Cell based pERK assay, Kuramochi. To be noted: Kuramochi (WT KRAS), 2 hours incubation, HTRF phospho-ERK1/2; read-out: Kuramochi pERK EC50. The method, then:
as §1

In test [4] the test system is cellular pERK in MIA-PaCa-2 (KRAS-G12C) cells. In words: Cell based pERK assay, MIA-PaCa-2. To be noted: Homo sapiens; MIA-PaCa-2 (KRAS-G12C), 2 hours incubation, HTRF phospho-ERK1/2; read-out: MIAPaCa2 pERK EC50. As for the experimental part: as §1

`C#Cc1c(F)ccc2cc(N)cc(-c3nc4c5c(nc(OC[C@@]67CCCN6C[C@H](F)C7)nc5c3F)N3C[C@@]5(F)CC[C@](F)(N5)[C@H]3CCC4)c12` [Example 4-2, 5-ethynyl-6-fluoro-4-((6aR,7R,10S)-1,7,10-trifluoro-13-(((2R,7aS)-2-fluorotetrahydro-1H-pyrrolizin-7a(5H)-yl)methoxy)-5,6,6a,7,8,9,10,11-octahydro-4H-3,11a,12,14,15-pentaaza-7,10-methanocyclohepta[4,5]cycloocta[1,2,3-de]naphthalen-2-yl)naphthalen-2-amine]: the EC50 (commonly the concentration at which the effect is half-maximal) in test [1] was 20 nM; in test [2], 3.04 nM; in test [3], 2.89 nM.
As to `C#Cc1c(F)ccc2cc(O)cc(-c3nc4c5c(nc(OCC67CCCN6CCC7)nc5c3F)N3C[C@@]5(F)CC[C@](F)(N5)[C@H]3CCC4)c12` [Example 4-5, 5-ethynyl-6-fluoro-4-((6aR,7R,10S)-1,7,10-trifluoro-13-((tetrahydro-1H-pyrrolizin-7a(5H)-yl)methoxy)-5,6,6a,7,8,9,10,11-octahydro-4H-3,11a,12,14,15-pentaaza-7,10-methanocyclohepta[4,5]cycloocta[1,2,3-de]naphthalen-2-yl)naphthalen-2-ol], the EC50 is 10.1 nM in test [1], 0.397 nM in test [4] and 6.47 nM in test [3].
For `N#Cc1c(F)ccc2cc(O)cc(-c3nc4c5c(nc(OCC67CCCN6CCC7)nc5c3F)N3C[C@@]5(F)CC[C@](F)(N5)[C@H]3CCC4)c12` [Example 4-9, 2-fluoro-6-hydroxy-8-((6aR,7R,10S)-1,7,10-trifluoro-13-((tetrahydro-1H-pyrrolizin-7a(5H)-yl)methoxy)-5,6,6a,7,8,9,10,11-octahydro-4H-3,11a,12,14,15-pentaaza-7,10-methanocyclohepta[4,5]cycloocta[1,2,3-de]naphthalen-2-yl)-1-naphthonitrile] the same measures were 323 nM, 6.08 nM and 13.2 nM.
For `C#Cc1c(F)ccc2c(F)c(N)cc(-c3nc4c5c(nc(OCC67CCCN6CCC7)nc5c3F)N3C[C@@]5(F)CC[C@](F)(N5)[C@H]3CCC4)c12` [Example 4-18, 5-ethynyl-1,6-difluoro-4-((6aR,7R,10S)-1,7,10-trifluoro-13-((tetrahydro-1H-pyrrolizin-7a(5H)-yl)methoxy)-5,6,6a,7,8,9,10,11-octahydro-4H-3,11a,12,14,15-pentaaza-7,10-methanocyclohepta[4,5]cycloocta[1,2,3-de]naphthalen-2-yl)naphthalen-2-amine], in that order: 388 nM, 22.3 nM and 13.3 nM.
On to `Oc1cc(-c2nc3c4c(nc(OCC56CCCN5CCC6)nc4c2F)N2C[C@@]4(F)CC[C@](F)(N4)[C@H]2CCC3)c2c(F)c(F)ccc2c1` [Example 4-22, 5,6-difluoro-4-[(4S,7R,8R)-4,7,15-trifluoro-18-(1,2,3,5,6,7-hexahydropyrrolizin-8-ylmethoxy)-2,13,17,19,21-pentazapentacyclo[10.7.1.14,7.02,8.016,20]henicosa-1(19),12(20),13,15,17-pentaen-14-yl]naphthalen-2-ol], for which the EC50 in test [1] turned out to be 83.4 nM; in test [4], 2.03 nM; in test [3], 4.1 nM.
For `C#Cc1c(F)ccc2cccc(-c3nc4c5c(nc(OCC67CCCN6CCC7)nc5c3F)N3C[C@@]5(F)CC[C@](F)(N5)[C@@H]3[C@@H](C)C4)c12` [Example 4-31, (5S,5aS,6R,9S)-2-(8-ethynyl-7-fluoronaphthalen-1-yl)-1,6,9-trifluoro-5-methyl-12-((tetrahydro-1H-pyrrolizin-7a(5H)-yl)methoxy)-4,5,5a,6,7,8,9,10-octahydro-3,10a,11,13,14-pentaaza-6,9-methanonaphtho[1,8-ab]heptalene] the same measures were 38.1 nM, 2.19 nM and 1.36 nM.
Turning to `C#Cc1c(F)c(F)cc2cc(O)cc(-c3nc4c5c(nc(OCC67CCCN6CCC7)nc5c3F)N3C[C@@]5(F)CC[C@](F)(N5)[C@@H]3[C@@H](C)C4)c12` [Example 4-33, 5-ethynyl-6,7-difluoro-4-((5S,5aS,6R,9S)-1,6,9-trifluoro-5-methyl-12-((tetrahydro-1H-pyrrolizin-7a(5H)-yl)methoxy)-4,5,5a,6,7,8,9,10-octahydro-3,10a,11,13,14-pentaaza-6,9-methanonaphtho[1,8-ab]heptalen-2-yl)naphthalen-2-ol], the EC50 in test [1] was found to be 12.4 nM; in test [4], 0.286 nM; in test [3], 8.68 nM.
On to `C#Cc1c(F)ccc2cc(N)cc(-c3nc4c5c(nc(OC[C@@]67CCCN6C[C@H](F)C7)nc5c3F)N3C[C@@]5(F)CC[C@H](N5)[C@@H]3[C@@H](C)[C@H]4C)c12` [Example 4-37, 4-((4R,5S,5aS,6S,9S)-1,9-difluoro-12-(((2R,7aS)-2-fluorotetrahydro-1H-pyrrolizin-7a(5H)-yl)methoxy)-4,5-dimethyl-4,5,5a,6,7,8,9,10-octahydro-3,10a,11,13,14-pentaaza-6,9-methanonaphtho[1,8-ab]heptalen-2-yl)-5-ethynyl-6-fluoronaphthalen-2-amine], for which the values for the EC50 in test [1], in test [4] and in test [2] were 4.65 nM, 0.153 nM and 0.475 nM, respectively.
As for `Nc1cc(-c2nc3c4c(nc(OCC56CCCN5CCC6)nc4c2F)N2C[C@@]4(F)CC[C@](F)(N4)[C@H]2CCC3)c2c(Cl)c(F)ccc2c1` [Example 5-2, 5-chloro-6-fluoro-4-((6aR,7R,10S)-1,7,10-trifluoro-13-((tetrahydro-1H-pyrrolizin-7a(5H)-yl)methoxy)-5,6,6a,7,8,9,10,11-octahydro-4H-3,11a,12,14,15-pentaaza-7,10-methanocyclohepta[4,5]cycloocta[1,2,3-de]naphthalen-2-yl)naphthalen-2-amine], the figures for the EC50 in test [1], in test [4] and in test [3] were 338 nM, 17.7 nM and 4.4 nM, respectively.
For `CCc1c(F)ccc2cc(N)cc(-c3nc4c5c(nc(OCC67CCCN6CCC7)nc5c3F)N3C[C@@]5(F)CC[C@](F)(N5)[C@H]3CCC4)c12` [Example 6-2, 5-ethyl-6-fluoro-4-((6aR,7R,10S)-1,7,10-trifluoro-13-((tetrahydro-1H-pyrrolizin-7a(5H)-yl)methoxy)-5,6,6a,7,8,9,10,11-octahydro-4H-3,11a,12,14,15-pentaaza-7,10-methanocyclohepta[4,5]cycloocta[1,2,3-de]naphthalen-2-yl)naphthalen-2-amine], in that order: 456 nM, 22.6 nM and 6.48 nM.
For `CCc1c(F)ccc2cc(O)cc(-c3nc4c5c(nc(OCC67CCCN6CCC7)nc5c3F)N3C[C@@]5(F)CC[C@](F)(N5)[C@@H]3[C@@H](C)C4)c12` [Example 6-3, 5-ethyl-6-fluoro-4-((8S,8aS,9R,12S)-4,9,12-trifluoro-8-methyl-2-((tetrahydro-1H-pyrrolizin-7a(5H)-yl)methoxy)-7,8,8a,9,10,11,12,13-octahydro-1,3,6,13a,14-pentaaza-9,12-methanonaphtho[1,8-ab]heptalen-5-yl)naphthalen-2-ol], in that order: 20 nM, 0.513 nM and 6.62 nM.
For `CCc1c(F)ccc2cc(N)cc(-c3nc4c5c(nc(OCC67CCCN6CCC7)nc5c3F)N3C[C@@]5(F)CC[C@](F)(N5)[C@@H]3[C@@H](C)C4)c12` [Example 6-4, 5-ethyl-6-fluoro-4-((8S,8aS,9R,12S)-4,9,12-trifluoro-8-methyl-2-((tetrahydro-1H-pyrrolizin-7a(5H)-yl)methoxy)-7,8,8a,9,10,11,12,13-octahydro-1,3,6,13a,14-pentaaza-9,12-methanonaphtho[1,8-ab]heptalen-5-yl)naphthalen-2-amine], in that order: 197 nM, 12.8 nM and 8.24 nM.

Source of the values: US20250042922A1, “KRAS MODULATING COMPOUNDS” (priority 2023, published 2025).
